According to patent US20250313533A1, “QUINOLINE CARBOXYLIC ACID ESTER COMPOUND AND PREPARATION METHOD AND USE THEREOF” (priority 2019, published 2025):

Experiments:
[1] = test system: cucumber seedlings; assay: Safety for plant growth after application; format: in vivo; conditions: dosage 200 ppm
How it was run: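 Indoor potted cucumber seedlings were treated with the compounds, and crop safety was judged from effects on plant height growth rate, chlorophyll content and leaf area.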

[2] = test system: indoor potted cucumber seedlings; assay: Effect of improving growth and development of crops; format: in vivo; design: Rate of growth rate increase (%): concentration or dose not given beside the values; conditions: versus blank control; for Rate of chlorophyll content increase (%) / Rate of leaf area increase (%): 14 days after application; for Rate of growth rate increase (%): plant height 14 days after application; for Rate of leaf area increase (%): second leaf
How it was run: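 Readouts: rate of increase in height growth, leaf area and SPAD chlorophyll content. Measurements were made before compound application and again 14 days afterwards, with leaf area computed from second-leaf dimensions.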

[3] = test system: black shank in potatoes; assay: Living crops in vivo protective activity, potatoes (root irrigation); conditions: Solanum tuberosum, read-out: efficacy against black shank in potatoes; for pest or weed control at 5 ppm: dosage 5 ppm; for pest or weed control at 10 ppm: dosage 10 ppm
Protocol: Root irrigation was carried out on the potatoes for tests according to the designed concentration of the agents. The dosage for each plant was 200 mL and was kept consistent (also for the control). The black shank bacteria were inoculated on the second day after the application. The results were investigated according to the disease condition.

[4] = test system: pathogenic bacteria causing stem rot in sweet potatoes; assay: In vitro bactericidal activity, stem rot in sweet potatoes; format: cell-based, dikia; conditions: read-out: inhibitory rate; for inhibition at 1 ppm: dosage 1 ppm; for inhibition at 5 ppm: dosage 5 ppm
[5] = test system: pathogenic bacteria causing black shank in potatoes; assay: In vitro bactericidal activity, black shank in potatoes; format: cell-based; conditions: read-out: inhibitory rate; for inhibition at 1 ppm: dosage 1 ppm; for inhibition at 5 ppm: dosage 5 ppm
[6] = test system: bacterial wilt in tobacco; assay: whole plant or invertebrate; conditions: Nicotiana tabacum, read-out: efficacy against bacterial wilt in tobacco
[7] = test system: pathogenic bacteria causing bacterial angular leaf spot in cucumbers; assay: In vitro bactericidal activity, bacterial angular leaf spot in cucumbers; format: cell-based, pseudomonas; conditions: read-out: inhibitory rate; for inhibition at 1 ppm: dosage 1 ppm; for inhibition at 5 ppm: dosage 5 ppm
[8] = test system: pathogenic bacteria causing bacterial wilt in tobacco; assay: whole plant or invertebrate; format: cell-based, ralstonia; conditions: read-out: inhibitory rate
[9] = test system: pathogenic bacteria causing fire blight in pears; assay: In vitro bactericidal activity, fire blight in pears; format: cell-based, erwinia; conditions: Erwinia, read-out: inhibitory rate; for inhibition at 1 ppm: dosage 1 ppm; for inhibition at 5 ppm: dosage 5 ppm
[10] = test system: pathogenic bacteria causing bacterial blight in rice; assay: whole plant or invertebrate; format: cell-based, xanthomonas; conditions: read-out: inhibitory rate
[11] = test system: fruit blotch in watermelons; assay: whole plant or invertebrate; conditions: read-out: efficacy against fruit blotch in watermelons
[12] = test system: pathogenic bacteria causing bacterial wilt in cassava; assay: organism not typed; format: cell-based; conditions: read-out: inhibitory rate
[13] = test system: soft rot in Chinese cabbages; assay: whole plant or invertebrate; conditions: 48 h, read-out: efficacy against soft rot in Chinese cabbages
[14] = test system: stem rot in sweet potatoes; assay: whole plant or invertebrate; conditions: read-out: efficacy against stem rot in sweet potatoes
[15] = test system: pathogenic bacteria causing black rot in Chinese cabbages; assay: In vitro bactericidal activity, black rot in Chinese cabbages; format: cell-based, xanthomonas; conditions: Xanthomonas, read-out: inhibitory rate; for inhibition at 1 ppm: dosage 1 ppm; for inhibition at 5 ppm: dosage 5 ppm
[16] = test system: bacterial blight in rice; assay: whole plant or invertebrate; conditions: Oryza sativa, read-out: efficacy against bacterial blight in rice
[17] = test system: pathogenic bacteria causing fruit blotch in watermelons; assay: In vitro bactericidal activity, fruit blotch in watermelons; format: cell-based, acidovorax; conditions: read-out: inhibitory rate; for inhibition at 1 ppm: dosage 1 ppm; for inhibition at 5 ppm: dosage 5 ppm

| SMILES | safety for plant growth (discoloration, necrosis, wilt, malformation) [1] | Rate of chlorophyll content increase (%) [2] [%] | Rate of growth rate increase (%) [2] [%] | Rate of leaf area increase (%) [2] [%] | pest or weed control at 5 ppm [3] [%] | pest or weed control at 10 ppm [3] [%] | inhibition at 1 ppm [4] [%] | inhibition at 5 ppm [4] [%] | inhibition at 1 ppm [5] [%] | inhibition at 5 ppm [5] [%] | pest or weed control at 5 ppm [6] [%] | pest or weed control at 10 ppm [6] [%] | inhibition at 1 ppm [7] [%] | inhibition at 5 ppm [7] [%] | inhibition at 1 ppm [8] [%] | inhibition at 5 ppm [8] [%] | inhibition at 1 ppm [9] [%] | inhibition at 5 ppm [9] [%] | inhibition at 1 ppm [10] [%] | inhibition at 5 ppm [10] [%] | further results |
| --- | --- | --- | --- | --- | --- | --- | --- | --- | --- | --- | --- | --- | --- | --- | --- | --- | --- | --- | --- | --- | --- |
| O=C(OCCO)c1cn(C2CC2)c2cc(OCC(F)(F)F)c(F)cc2c1=O [Compound 275] | safe for plant growth | 13 | 12 | 11 | ≥ 90 | ≥ 90 | ≥ 90 | ≥ 90 | ≥ 90 | ≥ 90 | ≥ 90 | ≥ 90 | ≥ 90 | ≥ 90 | ≥ 90 | ≥ 90 | ≥ 90 | ≥ 90 | ≥ 90 | ≥ 90 | pest or weed control at 5 ppm [11]: ≥ 90%; pest or weed control at 10 ppm [11]: ≥ 90%; inhibition at 1 ppm [12]: ≥ 90%; inhibition at 5 ppm [12]: ≥ 90%; pest or weed control at 5 ppm [13]: ≥ 90%; pest or weed control at 10 ppm [13]: ≥ 90%; pest or weed control at 5 ppm [14]: ≥ 90%; pest or weed control at 10 ppm [14]: ≥ 90%; inhibition at 1 ppm [15]: ≥ 90%; inhibition at 5 ppm [15]: ≥ 90%; pest or weed control at 5 ppm [16]: ≥ 90%; pest or weed control at 10 ppm [16]: ≥ 90%; inhibition at 1 ppm [17]: ≥ 90%; inhibition at 5 ppm [17]: ≥ 90% |
| COCCOC(=O)c1cn(C2CC2)c2ccc(F)cc2c1=O [Compound 10, 2-methoxyethyl 1-cyclopropyl-6-fluoro-4-oxo-1,4-dihydroquinoline-3-carboxylate] | safe for plant growth | 13 | 9 | 10 | ≥ 80 | ≥ 90 | ≥ 90 | ≥ 90 | ≥ 80 | ≥ 90 | ≥ 90 | ≥ 90 | ≥ 90 | ≥ 90 | ≥ 80 | ≥ 90 | ≥ 90 | ≥ 90 | ≥ 80 | ≥ 90 | pest or weed control at 5 ppm [11]: ≥ 90%; pest or weed control at 10 ppm [11]: ≥ 90%; inhibition at 1 ppm [12]: ≥ 90%; inhibition at 5 ppm [12]: ≥ 90%; pest or weed control at 5 ppm [13]: ≥ 80%; pest or weed control at 10 ppm [13]: ≥ 90%; pest or weed control at 5 ppm [14]: ≥ 90%; pest or weed control at 10 ppm [14]: ≥ 90%; inhibition at 1 ppm [15]: ≥ 90%; inhibition at 5 ppm [15]: ≥ 90%; pest or weed control at 5 ppm [16]: ≥ 80%; pest or weed control at 10 ppm [16]: ≥ 90%; inhibition at 1 ppm [17]: ≥ 90%; inhibition at 5 ppm [17]: ≥ 90% |
| CCN(CC)c1cc2c(cc1F)c(=O)c(C(=O)OCCOC)cn2C1CC1 [Compound 420, 2-methoxyethyl 1-cyclopropyl-7-(diethylamino)-6-fluoro-4-oxo-1,4-dihydroquinoline-3-carboxylate] | safe for plant growth | 9 | 9 | 12 | ≥ 90 | ≥ 90 | ≥ 90 | ≥ 90 | ≥ 90 | ≥ 90 | ≥ 90 | ≥ 90 | ≥ 90 | ≥ 90 | ≥ 90 | ≥ 90 | ≥ 90 | ≥ 90 | ≥ 90 | ≥ 90 | pest or weed control at 5 ppm [11]: ≥ 90%; pest or weed control at 10 ppm [11]: ≥ 90%; inhibition at 1 ppm [12]: ≥ 90%; inhibition at 5 ppm [12]: ≥ 90%; pest or weed control at 5 ppm [13]: ≥ 90%; pest or weed control at 10 ppm [13]: ≥ 90%; pest or weed control at 5 ppm [14]: ≥ 90%; pest or weed control at 10 ppm [14]: ≥ 90%; inhibition at 1 ppm [15]: ≥ 90%; inhibition at 5 ppm [15]: ≥ 90%; pest or weed control at 5 ppm [16]: ≥ 90%; pest or weed control at 10 ppm [16]: ≥ 90%; inhibition at 1 ppm [17]: ≥ 90%; inhibition at 5 ppm [17]: ≥ 90% |
| COCCOC(=O)c1cn(C2CC2)c2cc(F)ccc2c1=O [Compound 195] | safe for plant growth | 12 | 7 | 9 | ≥ 90 | ≥ 90 | ≥ 90 | ≥ 90 | ≥ 90 | ≥ 90 | ≥ 90 | ≥ 90 | ≥ 90 | ≥ 90 | ≥ 90 | ≥ 90 | ≥ 90 | ≥ 90 | ≥ 90 | ≥ 90 | pest or weed control at 5 ppm [11]: ≥ 90%; pest or weed control at 10 ppm [11]: ≥ 90%; inhibition at 1 ppm [12]: ≥ 90%; inhibition at 5 ppm [12]: ≥ 90%; pest or weed control at 5 ppm [13]: ≥ 90%; pest or weed control at 10 ppm [13]: ≥ 90%; pest or weed control at 5 ppm [14]: ≥ 90%; pest or weed control at 10 ppm [14]: ≥ 90%; inhibition at 1 ppm [15]: ≥ 90%; inhibition at 5 ppm [15]: ≥ 90%; pest or weed control at 5 ppm [16]: ≥ 90%; pest or weed control at 10 ppm [16]: ≥ 90%; inhibition at 1 ppm [17]: ≥ 90%; inhibition at 5 ppm [17]: ≥ 90% |
